Measured values reported in ChEMBL document CHEMBL1129689, “Unsaturated side chain beta-11-hydroxyhexahydrocannabinol analogs” (J Med Chem, 1996).

Experiments:
Cannabinoid receptor 1 = Cannabinoid receptor 1 (Rattus norvegicus, UniProt P20272); assay: Compound was evaluated for its ability to displace specifically bound [3H]CP-55940 from a Cannabinoid receptor 1 enriched rat brain microsome preparation.
Cannabinoid receptor 2 = Cannabinoid receptor 2 (Mus musculus, UniProt P47936); assay: Compound was evaluated for its ability to displace specifically bound [3H]CP-55940 from a Cannabinoid receptor 2 enriched mouse spleen preparation.; format: tissue-based
Chain of Cannabinoid receptor 2 (P47936 whole entry): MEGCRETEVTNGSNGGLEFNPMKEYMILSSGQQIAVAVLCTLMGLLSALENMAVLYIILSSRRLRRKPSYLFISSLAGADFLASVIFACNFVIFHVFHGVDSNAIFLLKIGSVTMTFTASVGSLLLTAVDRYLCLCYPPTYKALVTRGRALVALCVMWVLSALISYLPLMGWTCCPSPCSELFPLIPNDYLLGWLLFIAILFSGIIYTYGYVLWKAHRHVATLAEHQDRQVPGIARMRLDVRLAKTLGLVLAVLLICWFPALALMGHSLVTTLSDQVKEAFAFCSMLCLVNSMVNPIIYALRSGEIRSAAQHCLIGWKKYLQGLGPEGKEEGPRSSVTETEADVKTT

Chain of Cannabinoid receptor 1 (P20272 whole entry): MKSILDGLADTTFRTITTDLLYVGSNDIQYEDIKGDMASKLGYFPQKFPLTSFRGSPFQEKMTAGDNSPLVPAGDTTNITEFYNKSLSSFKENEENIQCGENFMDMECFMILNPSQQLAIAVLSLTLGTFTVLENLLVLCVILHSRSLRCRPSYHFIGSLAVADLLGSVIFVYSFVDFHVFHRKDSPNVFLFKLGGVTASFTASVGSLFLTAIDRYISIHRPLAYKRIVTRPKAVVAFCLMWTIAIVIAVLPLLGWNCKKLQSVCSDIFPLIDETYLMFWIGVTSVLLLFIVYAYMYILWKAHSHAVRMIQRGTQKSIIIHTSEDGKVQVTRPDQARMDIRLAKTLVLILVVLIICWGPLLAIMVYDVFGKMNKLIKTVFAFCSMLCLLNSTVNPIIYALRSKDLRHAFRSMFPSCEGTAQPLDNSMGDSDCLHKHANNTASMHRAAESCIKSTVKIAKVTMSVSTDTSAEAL

| Compound | Ki (Cannabinoid receptor 1) | Ki (Cannabinoid receptor 2) |
| --- | --- | --- |
| CCCCC/C=C/c1cc(O)c2c(c1)OC(C)(C)[C@@H]1CC[C@@H](CO)C[C@@H]21 | 1.2 nM | 5.3 nM |
| CCCCC/C=C\c1cc(O)c2c(c1)OC(C)(C)[C@@H]1CC[C@@H](CO)C[C@@H]21 | 0.8 nM | 9.5 nM |
| CCCCCC#Cc1cc(O)c2c(c1)OC(C)(C)[C@@H]1CC[C@@H](CO)C[C@@H]21 | 5.8 nM | 61.6 nM |
| CCCCCCCc1cc(O)c2c(c1)OC(C)(C)[C@@H]1CC[C@@H](CO)C[C@@H]21 | – | 14.3 nM |
